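The compound was tested at five concentrations on cells cultured in 96-well plates, with a 48-hour exposure period. GI50 = concentration required for 50% inhibition of growth. TGI marks complete inhibition of growth.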
How the values were obtained:
Experiment in all cases: NCI-60 cell line screen, 48 h
U251 CNS = system: U251 CNS
CAKI-1 renal = system: CAKI-1 renal
UACC-62 melanoma = system: UACC-62 melanoma
RXF 393 renal = system: RXF 393 renal
HL-60(TB) leukemia = system: HL-60(TB) leukemia
NCI-H226 lung = system: NCI-H226 lung
MDA-MB-231 breast = system: MDA-MB-231 breast
A549 NSCLC = system: A549 NSCLC
COLO 205 colon = system: COLO 205 colon
TK-10 renal = system: TK-10 renal
SK-MEL-28 melanoma = system: SK-MEL-28 melanoma
SK-MEL-2 melanoma = system: SK-MEL-2 melanoma
HCT-15 colon = system: HCT-15 colon
786-0 renal = system: 786-0 renal
M14 melanoma = system: M14 melanoma
SW-620 colon = system: SW-620 colon
SNB-19 CNS = system: SNB-19 CNS
SF-268 CNS = system: SF-268 CNS
SR leukemia = system: SR leukemia
OVCAR-5 ovarian = system: OVCAR-5 ovarian
KM12 colon = system: KM12 colon
ACHN renal = system: ACHN renal
MCF7 breast = system: MCF7 breast
HT29 colon = system: HT29 colon
LOX IMVI melanoma = system: LOX IMVI melanoma
SK-MEL-5 melanoma = system: SK-MEL-5 melanoma
HOP-92 NSCLC = system: HOP-92 NSCLC
HS 578T breast = system: HS 578T breast
HOP-62 NSCLC = system: HOP-62 NSCLC
UACC-257 melanoma = system: UACC-257 melanoma
DU-145 prostate = system: DU-145 prostate
SK-OV-3 ovarian = system: SK-OV-3 ovarian
K-562 leukemia = system: K-562 leukemia
SF-539 CNS = system: SF-539 CNS
OVCAR-8 ovarian = system: OVCAR-8 ovarian
MDA-MB-435 = system: MDA-MB-435
BT-549 breast = system: BT-549 breast
NCI-H460 lung = system: NCI-H460 lung
MOLT-4 leukemia = system: MOLT-4 leukemia
EKVX NSCLC = system: EKVX NSCLC
UO-31 renal = system: UO-31 renal
T-47D breast = system: T-47D breast
PC-3 prostate = system: PC-3 prostate
NCI-H23 lung = system: NCI-H23 lung
NCI-H522 lung = system: NCI-H522 lung
IGROV1 ovarian = system: IGROV1 ovarian
NCI/ADR-RES ovarian = system: NCI/ADR-RES ovarian
OVCAR-4 ovarian = system: OVCAR-4 ovarian
OVCAR-3 ovarian = system: OVCAR-3 ovarian
SN12C renal = system: SN12C renal
HCT-116 colon = system: HCT-116 colon
MALME-3M melanoma = system: MALME-3M melanoma
SF-295 CNS = system: SF-295 CNS
SNB-75 CNS = system: SNB-75 CNS
RPMI-8226 leukemia = system: RPMI-8226 leukemia
CCRF-CEM leukemia = system: CCRF-CEM leukemia

`CC1=NN(C(=O)c2ccc(Cl)cc2)C(=O)C1N=Nc1ccc(S(=O)(=O)Nc2ncccn2)cc1` (stereo not drawn) was tested, and the TGI (U251 CNS) was greater than 100 µM, the TGI (CAKI-1 renal) was greater than 100 µM and the TGI (UACC-62 melanoma) was greater than 100 µM. It also gave a TGI (RXF 393 renal) greater than 100 µM, a TGI (HL-60(TB) leukemia) greater than 100 µM and a TGI (NCI-H226 lung) greater than 100 µM. The TGI (MDA-MB-231 breast) was greater than 100 µM, the TGI (A549 NSCLC) was greater than 100 µM and the TGI (COLO 205 colon) was greater than 100 µM. For the same molecule, the TGI (TK-10 renal) was greater than 100 µM, the TGI (SK-MEL-28 melanoma) was greater than 100 µM and the TGI (SK-MEL-2 melanoma) was greater than 100 µM. For the same molecule, the TGI (HCT-15 colon) was greater than 100 µM, the TGI (786-0 renal) was greater than 100 µM and the TGI (M14 melanoma) was greater than 100 µM. It also gave a TGI (SW-620 colon) greater than 100 µM, a TGI (SNB-19 CNS) greater than 100 µM and a TGI (SF-268 CNS) greater than 100 µM. For the same molecule, the TGI (SR leukemia) was greater than 100 µM, the TGI (OVCAR-5 ovarian) was greater than 100 µM and the TGI (KM12 colon) was greater than 100 µM. The TGI (ACHN renal) was greater than 100 µM, the TGI (MCF7 breast) was greater than 100 µM and the TGI (HT29 colon) was greater than 100 µM. It also gave a TGI (LOX IMVI melanoma) greater than 100 µM, a TGI (SK-MEL-5 melanoma) greater than 100 µM and a TGI (HOP-92 NSCLC) of 2.07 µM. It also gave a TGI (HS 578T breast) greater than 100 µM, a TGI (HOP-62 NSCLC) greater than 100 µM and a TGI (UACC-257 melanoma) greater than 100 µM. It also gave a TGI (DU-145 prostate) greater than 100 µM, a TGI (SK-OV-3 ovarian) greater than 100 µM and a TGI (K-562 leukemia) greater than 100 µM. For the same molecule, the TGI (SF-539 CNS) was greater than 100 µM, the TGI (OVCAR-8 ovarian) was greater than 100 µM and the TGI (MDA-MB-435) was greater than 100 µM. For the same molecule, the TGI (BT-549 breast) was greater than 100 µM, the TGI (NCI-H460 lung) was greater than 100 µM and the TGI (MOLT-4 leukemia) was greater than 100 µM. It also gave a TGI (EKVX NSCLC) greater than 100 µM, a TGI (UO-31 renal) greater than 100 µM and a TGI (T-47D breast) greater than 100 µM. The TGI (PC-3 prostate) was 5.11 µM, the TGI (NCI-H23 lung) was greater than 100 µM and the TGI (NCI-H522 lung) was greater than 100 µM. The TGI (IGROV1 ovarian) was greater than 100 µM, the TGI (NCI/ADR-RES ovarian) was greater than 100 µM and the TGI (OVCAR-4 ovarian) was greater than 100 µM. For the same molecule, the TGI (OVCAR-3 ovarian) was greater than 100 µM, the TGI (SN12C renal) was greater than 100 µM and the TGI (HCT-116 colon) was greater than 100 µM. It also gave a TGI (MALME-3M melanoma) greater than 100 µM, a TGI (SF-295 CNS) greater than 100 µM and a TGI (SNB-75 CNS) greater than 100 µM.

`Cc1ccc(NC2=N[C@]34CC(=O)CC[C@]3(C)[C@H]3CC[C@]5(C)C(=O)CC[C@H]5[C@@H]3C[C@@H]4S2)c(C)c1` gave a GI50 (U251 CNS) of 1.69 µM, a TGI (U251 CNS) of 3.21 µM and a GI50 (CAKI-1 renal) of 2.83 µM. For the same molecule, the TGI (CAKI-1 renal) was greater than 100 µM, the GI50 (UACC-62 melanoma) was 1.72 µM and the TGI (UACC-62 melanoma) was 3.94 µM. For the same molecule, the GI50 (RXF 393 renal) was 1.74 µM, the TGI (RXF 393 renal) was 3.23 µM and the GI50 (HL-60(TB) leukemia) was 2.47 µM. It also gave a TGI (HL-60(TB) leukemia) of 6.03 µM, a GI50 (MDA-MB-231 breast) of 2.33 µM and a TGI (MDA-MB-231 breast) of 7.92 µM. It also gave a GI50 (A549 NSCLC) of 3.5 µM, a TGI (A549 NSCLC) greater than 100 µM and a GI50 (COLO 205 colon) of 2.5 µM. It also gave a TGI (COLO 205 colon) of 6.54 µM, a GI50 (TK-10 renal) of 2.46 µM and a TGI (TK-10 renal) of 6.7 µM. The GI50 (SK-MEL-28 melanoma) was 2.31 µM, the TGI (SK-MEL-28 melanoma) was 6.08 µM and the GI50 (SK-MEL-2 melanoma) was 2.19 µM. For the same molecule, the TGI (SK-MEL-2 melanoma) was 4.74 µM, the GI50 (786-0 renal) was 1.62 µM and the TGI (786-0 renal) was 3.07 µM. The GI50 (SNB-19 CNS) was 2.12 µM, the TGI (SNB-19 CNS) was 5.09 µM and the GI50 (SR leukemia) was 2.32 µM. For the same molecule, the TGI (SR leukemia) was greater than 100 µM, the GI50 (OVCAR-5 ovarian) was 2.9 µM and the TGI (OVCAR-5 ovarian) was greater than 100 µM. It also gave a GI50 (MCF7 breast) of 2.31 µM, a TGI (MCF7 breast) greater than 100 µM and a GI50 (HT29 colon) of 2.55 µM. For the same molecule, the TGI (HT29 colon) was 7.04 µM, the GI50 (LOX IMVI melanoma) was 1.64 µM and the TGI (LOX IMVI melanoma) was 3.13 µM. For the same molecule, the GI50 (SK-MEL-5 melanoma) was 1.86 µM, the TGI (SK-MEL-5 melanoma) was 3.73 µM and the GI50 (HOP-92 NSCLC) was 1.72 µM. For the same molecule, the TGI (HOP-92 NSCLC) was 3.86 µM, the GI50 (HS 578T breast) was 3.75 µM and the TGI (HS 578T breast) was greater than 100 µM. It also gave a GI50 (HOP-62 NSCLC) of 2.43 µM, a TGI (HOP-62 NSCLC) of 6.92 µM and a GI50 (UACC-257 melanoma) of 3.7 µM. The TGI (UACC-257 melanoma) was greater than 100 µM, the GI50 (DU-145 prostate) was 2.04 µM and the TGI (DU-145 prostate) was 5.18 µM. The GI50 (SK-OV-3 ovarian) was 9.85 µM, the TGI (SK-OV-3 ovarian) was greater than 100 µM and the GI50 (K-562 leukemia) was 2.86 µM. For the same molecule, the TGI (K-562 leukemia) was greater than 100 µM, the GI50 (SF-539 CNS) was 1.62 µM and the TGI (SF-539 CNS) was 3.08 µM. For the same molecule, the GI50 (OVCAR-8 ovarian) was 2.63 µM, the TGI (OVCAR-8 ovarian) was 7.26 µM and the GI50 (MDA-MB-435) was 3.02 µM. The TGI (MDA-MB-435) was greater than 100 µM, the GI50 (BT-549 breast) was 1.49 µM and the TGI (BT-549 breast) was 2.94 µM. For the same molecule, the GI50 (NCI-H460 lung) was 2.7 µM, the TGI (NCI-H460 lung) was 8.39 µM and the GI50 (MOLT-4 leukemia) was 2.49 µM. The TGI (MOLT-4 leukemia) was greater than 100 µM, the GI50 (UO-31 renal) was 1.34 µM and the TGI (UO-31 renal) was 2.86 µM. It also gave a GI50 (T-47D breast) of 2.89 µM, a TGI (T-47D breast) greater than 100 µM and a GI50 (PC-3 prostate) of 1.86 µM. The TGI (PC-3 prostate) was 4.53 µM, the GI50 (NCI-H23 lung) was 2.01 µM and the TGI (NCI-H23 lung) was 4.85 µM. For the same molecule, the GI50 (NCI-H522 lung) was 1.68 µM, the TGI (NCI-H522 lung) was 3.28 µM and the GI50 (IGROV1 ovarian) was 2.11 µM. It also gave a TGI (IGROV1 ovarian) of 5.14 µM, a GI50 (NCI/ADR-RES ovarian) of 2.91 µM and a TGI (NCI/ADR-RES ovarian) greater than 100 µM. For the same molecule, the GI50 (OVCAR-4 ovarian) was 3.83 µM, the TGI (OVCAR-4 ovarian) was greater than 100 µM and the GI50 (RPMI-8226 leukemia) was 2.43 µM. For the same molecule, the TGI (RPMI-8226 leukemia) was 6.25 µM, the GI50 (OVCAR-3 ovarian) was 2.18 µM and the TGI (OVCAR-3 ovarian) was 5.03 µM. The GI50 (CCRF-CEM leukemia) was 2.45 µM, the TGI (CCRF-CEM leukemia) was greater than 100 µM and the GI50 (SN12C renal) was 2.17 µM. The TGI (SN12C renal) was 5.07 µM, the GI50 (HCT-116 colon) was 1.49 µM and the TGI (HCT-116 colon) was 2.85 µM. The GI50 (MALME-3M melanoma) was 1.99 µM, the TGI (MALME-3M melanoma) was 5.55 µM and the GI50 (SNB-75 CNS) was 2.19 µM. The TGI (SNB-75 CNS) was 97.5 µM.

Reference: PubChem BioAssay (NCI)
